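How tested: cells in 96-well plates exposed to compound for 48 hours at five concentrations. GI50 = concentration required for 50% inhibition of growth. TGI marks complete inhibition of growth.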
Assays:
Test in all cases: NCI-60 cell line screen, 48 h
786-0 renal = system: 786-0 renal
A498 renal = system: A498 renal
A549 NSCLC = system: A549 NSCLC
ACHN renal = system: ACHN renal
BT-549 breast = system: BT-549 breast
CAKI-1 renal = system: CAKI-1 renal
CCRF-CEM leukemia = system: CCRF-CEM leukemia
COLO 205 colon = system: COLO 205 colon
DU-145 prostate = system: DU-145 prostate
EKVX NSCLC = system: EKVX NSCLC
HCC-2998 colon = system: HCC-2998 colon
HCT-116 colon = system: HCT-116 colon
HCT-15 colon = system: HCT-15 colon
HL-60(TB) leukemia = system: HL-60(TB) leukemia
HOP-62 NSCLC = system: HOP-62 NSCLC
HOP-92 NSCLC = system: HOP-92 NSCLC
HS 578T breast = system: HS 578T breast
HT29 colon = system: HT29 colon
IGROV1 ovarian = system: IGROV1 ovarian
K-562 leukemia = system: K-562 leukemia
KM12 colon = system: KM12 colon
LOX IMVI melanoma = system: LOX IMVI melanoma
M14 melanoma = system: M14 melanoma
MALME-3M melanoma = system: MALME-3M melanoma
MCF7 breast = system: MCF7 breast
MDA-MB-231 breast = system: MDA-MB-231 breast
MDA-MB-435 = system: MDA-MB-435
MDA-MB-468 breast = system: MDA-MB-468 breast
MOLT-4 leukemia = system: MOLT-4 leukemia
NCI-H226 lung = system: NCI-H226 lung
NCI-H23 lung = system: NCI-H23 lung
NCI-H460 lung = system: NCI-H460 lung
NCI-H522 lung = system: NCI-H522 lung
NCI/ADR-RES ovarian = system: NCI/ADR-RES ovarian
OVCAR-3 ovarian = system: OVCAR-3 ovarian
OVCAR-4 ovarian = system: OVCAR-4 ovarian
OVCAR-5 ovarian = system: OVCAR-5 ovarian
OVCAR-8 ovarian = system: OVCAR-8 ovarian
PC-3 prostate = system: PC-3 prostate
RPMI-8226 leukemia = system: RPMI-8226 leukemia
RXF 393 renal = system: RXF 393 renal
SF-268 CNS = system: SF-268 CNS
SF-295 CNS = system: SF-295 CNS
SF-539 CNS = system: SF-539 CNS
SK-MEL-2 melanoma = system: SK-MEL-2 melanoma
SK-MEL-28 melanoma = system: SK-MEL-28 melanoma
SK-MEL-5 melanoma = system: SK-MEL-5 melanoma
SK-OV-3 ovarian = system: SK-OV-3 ovarian
SN12C renal = system: SN12C renal
SNB-19 CNS = system: SNB-19 CNS
SNB-75 CNS = system: SNB-75 CNS
SR leukemia = system: SR leukemia
SW-620 colon = system: SW-620 colon
T-47D breast = system: T-47D breast
TK-10 renal = system: TK-10 renal
U251 CNS = system: U251 CNS
UACC-257 melanoma = system: UACC-257 melanoma
UACC-62 melanoma = system: UACC-62 melanoma
UO-31 renal = system: UO-31 renal

C#CCN(C)CCCOc1ccc(N(CC)C(=O)c2cc(C(C)C)c(O)cc2O)cc1Cl
GI50 (786-0 renal): 1370 nM | TGI (786-0 renal): 17400 nM | GI50 (A498 renal): 679 nM | TGI (A498 renal): 15500 nM | GI50 (A549 NSCLC): 146 nM | TGI (A549 NSCLC): 15000 nM | GI50 (ACHN renal): 105 nM | TGI (ACHN renal): 12700 nM | GI50 (BT-549 breast): 1750 nM | TGI (BT-549 breast): 14300 nM | GI50 (CAKI-1 renal): 350 nM | TGI (CAKI-1 renal): 14600 nM | GI50 (CCRF-CEM leukemia): 85.7 nM | TGI (CCRF-CEM leukemia): 13300 nM | GI50 (COLO 205 colon): 3080 nM | TGI (COLO 205 colon): 13400 nM | GI50 (DU-145 prostate): 59.5 nM | TGI (DU-145 prostate): 15300 nM | GI50 (EKVX NSCLC): 484 nM | TGI (EKVX NSCLC): 8530 nM | GI50 (HCC-2998 colon): 273 nM | TGI (HCC-2998 colon): 1910 nM | GI50 (HCT-116 colon): 138 nM | TGI (HCT-116 colon): 13300 nM | GI50 (HCT-15 colon): 94.8 nM | TGI (HCT-15 colon): 12200 nM | GI50 (HL-60(TB) leukemia): 73 nM | TGI (HL-60(TB) leukemia): 2720 nM | GI50 (HOP-62 NSCLC): 400 nM | TGI (HOP-62 NSCLC): 19000 nM | GI50 (HOP-92 NSCLC): 446 nM | TGI (HOP-92 NSCLC): 2700 nM | GI50 (HS 578T breast): 1560 nM | TGI (HS 578T breast): 21100 nM | GI50 (HT29 colon): 2970 nM | TGI (HT29 colon): 13100 nM | GI50 (IGROV1 ovarian): 193 nM | TGI (IGROV1 ovarian): 13600 nM | GI50 (K-562 leukemia): 91.4 nM | TGI (K-562 leukemia): 23000 nM | GI50 (KM12 colon): 111 nM | TGI (KM12 colon): 10500 nM | GI50 (LOX IMVI melanoma): 139 nM | TGI (LOX IMVI melanoma): 359 nM | GI50 (M14 melanoma): 462 nM | TGI (M14 melanoma): 13000 nM | GI50 (MALME-3M melanoma): 207 nM | TGI (MALME-3M melanoma): 1580 nM | GI50 (MCF7 breast): 56.1 nM | TGI (MCF7 breast): 13700 nM | GI50 (MDA-MB-231 breast): 230 nM | TGI (MDA-MB-231 breast): 2750 nM | GI50 (MDA-MB-435): 174 nM | TGI (MDA-MB-435): 12000 nM | GI50 (MDA-MB-468 breast): 115 nM | TGI (MDA-MB-468 breast): 462 nM | GI50 (MOLT-4 leukemia): 139 nM | TGI (MOLT-4 leukemia): 13200 nM | GI50 (NCI-H226 lung): 604 nM | TGI (NCI-H226 lung): 17900 nM | GI50 (NCI-H23 lung): 346 nM | TGI (NCI-H23 lung): 13900 nM | GI50 (NCI-H460 lung): 68.7 nM | TGI (NCI-H460 lung): 10900 nM | GI50 (NCI-H522 lung): 121 nM | TGI (NCI-H522 lung): 5480 nM | GI50 (NCI/ADR-RES ovarian): 339 nM | TGI (NCI/ADR-RES ovarian): 7320 nM | GI50 (OVCAR-3 ovarian): 595 nM | TGI (OVCAR-3 ovarian): 14900 nM | GI50 (OVCAR-4 ovarian): 1630 nM | TGI (OVCAR-4 ovarian): 19400 nM | GI50 (OVCAR-5 ovarian): 482 nM | TGI (OVCAR-5 ovarian): 16000 nM | GI50 (OVCAR-8 ovarian): 219 nM | TGI (OVCAR-8 ovarian): 15600 nM | GI50 (PC-3 prostate): 232 nM | TGI (PC-3 prostate): 14700 nM | GI50 (RPMI-8226 leukemia): 294 nM | TGI (RPMI-8226 leukemia): 3170 nM | GI50 (RXF 393 renal): 917 nM | TGI (RXF 393 renal): 12500 nM | GI50 (SF-268 CNS): 1660 nM | TGI (SF-268 CNS): 23900 nM | GI50 (SF-295 CNS): 384 nM | TGI (SF-295 CNS): 12600 nM | GI50 (SF-539 CNS): 361 nM | TGI (SF-539 CNS): 12800 nM | GI50 (SK-MEL-2 melanoma): 979 nM | TGI (SK-MEL-2 melanoma): 15500 nM | GI50 (SK-MEL-28 melanoma): 413 nM | TGI (SK-MEL-28 melanoma): 12700 nM | GI50 (SK-MEL-5 melanoma): 397 nM | TGI (SK-MEL-5 melanoma): 1790 nM | GI50 (SK-OV-3 ovarian): 52.1 nM | TGI (SK-OV-3 ovarian): 12400 nM | GI50 (SN12C renal): 105 nM | TGI (SN12C renal): 8280 nM | GI50 (SNB-19 CNS): 430 nM | TGI (SNB-19 CNS): 13400 nM | GI50 (SNB-75 CNS): 947 nM | TGI (SNB-75 CNS): 16100 nM | GI50 (SR leukemia): 48.3 nM | TGI (SR leukemia): 8500 nM | GI50 (SW-620 colon): 192 nM | TGI (SW-620 colon): 13800 nM | GI50 (T-47D breast): 88.8 nM | TGI (T-47D breast): 11900 nM | GI50 (TK-10 renal): 195 nM | TGI (TK-10 renal): 12300 nM | GI50 (U251 CNS): 399 nM | TGI (U251 CNS): 15100 nM | GI50 (UACC-257 melanoma): 434 nM | TGI (UACC-257 melanoma): 11400 nM | GI50 (UACC-62 melanoma): 174 nM | TGI (UACC-62 melanoma): 793 nM | GI50 (UO-31 renal): 156 nM | TGI (UO-31 renal): 13200 nM
